system: glucocorticoid receptor; experiment: One or more of the above assays (GR binding and GR cell assays; not specified which); assay type: cell-based; conditions: in one or more of the above assays
Protocol: This assay uses fluorescence polarization (FP) to quantitate the ability of test compounds to compete with tetramethyl rhodamine (TAMRA)-labeled dexamethasone for binding to a human glucocorticoid receptor (GR) complex prepared from an insect expression system. The assay buffer was: 10 mM TES, 50 mM KCl, 20 mM Na2MoO4.2H2O, 1.5 mM EDTA, 0.04% w/v CHAPS, 10% v/v glycerol, 1 mM dithiothreitol, pH 7.4. Test compounds were dissolved to 1 mM in neat DMSO and then further diluted to 10×assay concentration in assay buffer supplemented with 10% v/v DMSO. Test compounds were serially diluted at 10×assay concentrations in 10% DMSO-containing buffer in 96-well polypropylene plates. […] Positive controls were reaction mixtures containing no test compound; negative controls (blanks) were reaction mixtures containing 0.7 μM to 2 μM dexamethasone. […] IC50 values were determined by iterative non-linear curve fitting of the FP signal data to a 4-parameter logistic equation.
B. Glucocorticoid Receptor Cell Assays
1. Induction of Aromatase in Fibroblasts (Cell Assay for Transactivation)
Dexamethasone, a synthetic ligand to the glucocorticoid receptor (GR), induces expression of aromatase in human foreskin fibroblast cells. The activity of aromatase is measured by the conversion of testosterone to estradiol in culture media.
On the day of the experiment, the media in the wells is replaced with fresh media. Cells are treated with test compounds to final concentrations of 10^−5 M to 10 ^−8 M, and testosterone to a final concentration of 300 ng/mL. Each well has a total volume of 100 μL. Samples are made in duplicates. Control wells include: (a) wells that receive testosterone only, and (b) wells that receive testosterone plus 2 μM of dexamethasone to provide maximum induction of aromatase. Plates are incubated at 37° C. overnight (15 to 18 hours), and supernatants are harvested at the end of incubation. […] The amount of estradiol is inversely proportional to the ELISA signals in each well. The extent of aromatase induction by test compounds is expressed as a relative percentage to dexamethasone. EC50 values of test compounds are derived by non-linear curve fitting.
2. Inhibition of IL-6 Production in Fibroblasts (Cell Assay for Transrepression)
Human foreskin fibroblast cells produce IL-6 in response to stimulation by pro-inflammatory cytokine IL-1.
On the next day, media in the wells is replaced with fresh media. Cells are treated with IL-1 (rhIL-1α, R&D Systems Cat. No. 200-LA) to a final concentration of 1 ng/mL, and with test compounds to final concentrations of 10 ^−5 M to 10 ^−8 M, in a total volume of 200 μL per well. Samples are done in duplicates. […] Positive control wells receive IL-1 only and represent maximum (or 100%) amount of IL-6 production. Plates are incubated at 37° C. overnight (15 to 18 hours), and supernatants are harvested at the end of incubation. IL-6 levels in the supernatants are determined by the ELISA kits for IL-6 (MedSystems Diagnostics GmbH, Vienna, Austria, Cat. No. BMS213TEN) according to manufacture's instructions. The extent of inhibition of IL-6 by test compounds is expressed in percentage relative to positive controls. IC50 values of test compounds are derived by non-linear curve fitting.
Evaluation of agonist or antagonist activity of compounds binding to the glucocorticoid receptor may be determined by any of the assays.
3. Modulation of Tyrosine Aminotransferase (TAT) Induction in Rat Hepatoma Cells
Testing of compounds for agonist or antagonist activity in induction of tyrosine aminotransferase (TAT) in rat hepatoma cells.
H4-II-E-C3 cells were incubated overnight in 96 well plates (20,000 cells/100 μL/well) in MEM medium containing 10% heat inactivated FBS and 1% nonessential amino acids. On the next day, cells were stimulated with the indicated concentrations of dexamethasone or test compound (dissolved in DMSO, final DMSO concentration 0.2%) for 18 hours. Control cells were treated with 0.2% DMSO.

SMILES	activity as agonists of the glucocorticoid receptor function
Cc1ccc(C(C)(C)CC(O)(Cc2ccc(C#N)cc2Cl)C(F)(F)F)cc1 (centres unmarked) [3-Chloro-4-(2-hydroxy-4-methyl-4-p-tolyl-2-trifluoromethylpentyl)benzonitrile]	activity as agonists
CC(C)(CC(O)(Cc1ccc(C#N)cc1Cl)C(F)(F)F)c1ccccc1 (centres unmarked) [3-Chloro-4-(2-hydroxy-4-methyl-4-phenyl-2-trifluoromethylpentyl)benzonitrile]	activity as agonists
Cc1cccc(C(C)(C)CC(O)(Cc2ccc(C#N)cc2Cl)C2CC2)c1 (centres unmarked) [3-Chloro-4-[2-cyclopropyl-2-hydroxy-4-methyl-4-(3-methylphenyl)pentyl]benzonitrile]	activity as agonists
CC(C)(CC(O)(Cc1ccc(C#N)cc1Cl)C1CC1)c1cccc2c1OCC2 (centres unmarked) [3-Chloro-4-[2-cyclopropyl-4-(2,3-dihydrobenzofuran-7-yl)-2-hydroxy-4-methylpentyl]benzonitrile]	activity as agonists
COc1c(C(C)(C)CC(O)(Cc2ccc(C#N)cc2Cl)C(F)(F)F)ccc2ccccc12 (centres unmarked) [3-Chloro-4-[2-hydroxy-4-(1-methoxynaphthalen-2-yl)-4-methyl-2-trifluoromethylpentyl]benzonitrile]	activity as agonists
COc1cccc(C(C)(C)CC(O)(Cc2ccc(C#N)cc2Cl)C(F)(F)F)c1 (centres unmarked) [3-Chloro-4-[2-hydroxy-4-(3-methoxyphenyl)-4-methyl-2-trifluoromethylpentyl]benzonitrile]	activity as agonists
CC(C)(CC(O)(Cc1ccc(C#N)cc1Cl)C(F)(F)F)c1ccccc1C(F)(F)F (centres unmarked) [3-Chloro-4-[2-hydroxy-4-methyl-2-trifluoromethyl-4-(2-trifluoromethylphenyl)pentyl]benzonitrile]	activity as agonists
CC(C)(CC(O)(Cc1ccc(C#N)cc1Cl)C(F)(F)F)c1cccc(C(F)(F)F)c1 (centres unmarked) [3-Chloro-4-[2-hydroxy-4-methyl-2-trifluoromethyl-4-(3-trifluoromethylphenyl)pentyl]benzonitrile]	activity as agonists
CC(C)(CC(O)(Cc1ccc(C#N)cc1Cl)C(F)(F)F)c1ccc(C(F)(F)F)cc1 (centres unmarked) [3-Chloro-4-[2-hydroxy-4-methyl-2-trifluoromethyl-4-(4-trifluoromethylphenyl)pentyl]benzonitrile]	activity as agonists
Cc1cc2c(c(C(C)(C)CC(O)(Cc3ccc(C#N)cc3Cl)C(F)(F)F)c1)OCC2 (centres unmarked) [3-Chloro-4-[2-hydroxy-4-methyl-4-(5-methyl-2,3-dihydrobenzofuran-7-yl)-2-trifluoromethylpentyl]benzonitrile]	activity as agonists
CC(C)(CC(O)(Cc1ccc(C#N)cc1Cl)C(F)(F)F)c1ccc2c(c1)CCO2 (centres unmarked) [3-Chloro-4-[4-(2,3-dihydrobenzofuran-5-yl)-2-hydroxy-4-methyl-2-trifluoromethylpentyl]benzonitrile]	activity as agonists
CC(C)(CC(O)(Cc1ccc(C#N)cc1Cl)C(F)(F)F)c1cc(O)cc(O)c1 (centres unmarked) [3-Chloro-4-[4-(3,5-dihydroxyphenyl)-2-hydroxy-4-methyl-2-trifluoromethylpentyl]benzonitrile]	activity as agonists
COc1cc(OC)cc(C(C)(C)CC(O)(Cc2ccc(C#N)cc2Cl)C(F)(F)F)c1 (centres unmarked) [3-Chloro-4-[4-(3,5-dimethoxyphenyl)-2-hydroxy-4-methyl-2-trifluoromethylpentyl]benzonitrile]	activity as agonists
CCc1cccc(C(C)(C)CC(O)(Cc2ccc(C#N)cc2Cl)C(F)(F)F)c1O (centres unmarked) [3-Chloro-4-[4-(3-ethyl-2-hydroxyphenyl)-2-hydroxy-4-methyl-2-trifluoromethylpentyl]benzonitrile]	activity as agonists
CC(C)(CC(O)(Cc1ccc(C#N)cc1Cl)C(F)(F)F)c1cccc(F)c1 (centres unmarked) [3-Chloro-4-[4-(3-fluorophenyl)-2-hydroxy-4-methyl-2-trifluoromethylpentyl]benzonitrile]	activity as agonists
CC(C)(CC(O)(Cc1ccc(C#N)cc1Cl)C(F)(F)F)c1ccc(F)cc1O (centres unmarked) [3-Chloro-4-[4-(4-fluoro-2-hydroxyphenyl)-2-hydroxy-4-methyl-2-trifluoromethylpentyl]benzonitrile]	activity as agonists
COc1cc(F)ccc1C(C)(C)CC(O)(Cc1ccc(C#N)cc1Cl)C(F)(F)F (centres unmarked) [3-Chloro-4-[4-(4-fluoro-2-methoxyphenyl)-2-hydroxy-4-methyl-2-trifluoromethylpentyl]benzonitrile]	activity as agonists
CC(C)(CC(O)(Cc1ccc(C#N)cc1Cl)C(F)(F)F)c1ccc(F)cc1 (centres unmarked) [3-Chloro-4-[4-(4-fluorophenyl)-2-hydroxy-4-methyl-2-trifluoromethylpentyl]benzonitrile]	activity as agonists
CC(C)(CC(O)(Cc1ccc(C#N)cc1Cl)C(F)(F)F)c1cc(F)cc2c1OCC2 (centres unmarked) [3-Chloro-4-[4-(5-fluoro-2,3-dihydrobenzofuran-7-yl)-2-hydroxy-4-methyl-2-trifluoromethylpentyl]benzonitrile]	activity as agonists
CC(C)(CC(O)(Cc1ccc(C#N)cc1Cl)C(F)(F)F)c1cc(F)ccc1O (centres unmarked) [3-Chloro-4-[4-(5-fluoro-2-hydroxyphenyl)-2-hydroxy-4-methyl-2-trifluoromethylpentyl]benzonitrile]	activity as agonists
COc1ccc(F)cc1C(C)(C)CC(O)(Cc1ccc(/C=N/O)cc1Cl)C(F)(F)F (centres unmarked) [3-Chloro-4-[4-(5-fluoro-2-methoxyphenyl)-2-hydroxy-4-methyl-2-trifluoromethylpentyl]benzaldehyde oxime]	activity as agonists
COc1ccc(F)cc1C(C)(C)CC(O)(Cc1ccc(C=O)cc1Cl)C(F)(F)F (centres unmarked) [3-Chloro-4-[4-(5-fluoro-2-methoxyphenyl)-2-hydroxy-4-methyl-2-trifluoromethylpentyl]benzaldehyde]	activity as agonists
Cc1ccc(F)cc1C(C)(C)CC(O)(Cc1ccc(C#N)cc1Cl)C(F)(F)F (centres unmarked) [3-Chloro-4-[4-(5-fluoro-2-methylphenyl)-2-hydroxy-4-methyl-2-trifluoromethylpentyl]benzonitrile]	activity as agonists
N#Cc1ccc(CC(O)(CC2(c3cc(F)ccc3Cl)CCC2)C(F)(F)F)c(Cl)c1 (centres unmarked) [3-Chloro-4-{2-[1-(2-chloro-5-fluorophenyl)cyclobutylmethyl]-3,3,3-trifluoro-2-hydroxypropyl}benzonitrile]	activity as agonists
N#Cc1ccc(CC(O)(CC2(c3cc(F)ccc3O)CC2)C(F)(F)F)c(Cl)c1 (centres unmarked) [3-Chloro-4-{3,3,3-trifluoro-2-[1-(5-fluoro-2-hydroxyphenyl)cyclopropylmethyl]-2-hydroxypropyl}benzonitrile]	activity as agonists
COc1ccc(F)cc1C1(CC(O)(Cc2ccc(C#N)cc2Cl)C(F)(F)F)CC1 (centres unmarked) [3-Chloro-4-{3,3,3-trifluoro-2-[1-(5-fluoro-2-methoxyphenyl)cyclopropylmethyl]-hydroxypropyl}benzonitrile]	activity as agonists
